Data: patent US5698574A, “5-membered heteroaryl-oxazolidinones” (Bayer Aktiengesellschaft, priority 1994, dated 1997)
Values after ≈ are worked out from the molar mass of the structure shown.

What was measured:
Assay in all cases: minimum inhibitory concentration (MIC), series dilution on Iso-Sensitest agar
Format in all cases: cell-based
Klebs. 57 USA = conditions: 37° C., about 20 hours, about 10^4 colony-forming particles per point
Protocol: (§1) The minimum inhibitory concentrations (MIC) were determined by the series dilution method on Iso-Sensitest agar (Oxoid). A series of agar plates which contained concentration of the active compound which decreased by two-fold dilution in each case was prepared for each test substance. The agar plates were inoculated with a Multipoint inoculator (Denley). Overnight cultures of the pathogens which had been diluted beforehand such that each inoculation point contained about 10^4 colony-forming particles were used for the inoculation. The inoculated agar plates were incubated at 37° C. and the germ growth was read off alter about 20 hours. The MIC value (μg/ml) indicates the lowest concentration of active compound at which no growth was detectable with the naked eye.

Psdm. Bonn = conditions: 37° C., about 20 hours, about 10^4 colony-forming particles per point
Protocol: as §1

Staph 25701 = conditions: 37° C., about 20 hours, about 10^4 colony-forming particles per point
Protocol: as §1

E. coli Neumann = conditions: Escherichia coli, 37° C., about 20 hours, about 10^4 colony-forming particles per point
Protocol: as §1

Staph 133 = conditions: 37° C., about 20 hours, about 10^4 colony-forming particles per point
Protocol: as §1

Staph 48N = conditions: 37° C., about 20 hours, about 10^4 colony-forming particles per point
Protocol: as §1

Staph 9TV = conditions: 37° C., about 20 hours, about 10^4 colony-forming particles per point
Protocol: as §1

Row | Structure (SMILES) | MIC (Klebs. 57 USA) | MIC (Psdm. Bonn) | MIC (Staph 25701) | MIC (E. coli Neumann) | MIC (Staph 133) | MIC (Staph 48N) | MIC (Staph 9TV)
1 | CC(=O)NC[C@H]1CN(c2ccc(-c3ccccc3)s2)C(=O)O1 [Example 42] | > 32 µg/mL | > 32 µg/mL | 4 µg/mL (≈ 12.6 µM) | > 32 µg/mL | 2 µg/mL (≈ 6.32 µM) | 4 µg/mL (≈ 12.6 µM) | 2 µg/mL (≈ 6.32 µM)
2 | CC(=O)NC[C@H]1CN(c2ccc(-c3ccccc3C=O)s2)C(=O)O1 [Example 40, (5S)-3-{2[5-(2-Formylphenyl)]thiophenyl}-5-acetylamino-methyl-oxazolidin-2-one] | > 32 µg/mL | > 32 µg/mL | 2 µg/mL (≈ 5.81 µM) | > 32 µg/mL | 2 µg/mL (≈ 5.81 µM) | 4 µg/mL (≈ 11.6 µM) | 1 µg/mL (≈ 2.9 µM)
3 | CC(=O)NC[C@H]1CN(c2ccc(-c3ccc(F)cc3)s2)C(=O)O1 [Example 51] | > 32 µg/mL | > 32 µg/mL | 2 µg/mL (≈ 5.98 µM) | > 32 µg/mL | 4 µg/mL (≈ 12 µM) | 2 µg/mL (≈ 5.98 µM) | 1 µg/mL (≈ 2.99 µM)
4 | CC(=O)NC[C@H]1CN(c2ccc(-c3ccc(C(C)=O)cc3)s2)C(=O)O1 [Example 46] | > 32 µg/mL | > 32 µg/mL | 2 µg/mL (≈ 5.58 µM) | > 32 µg/mL | 2 µg/mL (≈ 5.58 µM) | 2 µg/mL (≈ 5.58 µM) | 0.5 µg/mL (≈ 1.4 µM)
5 | CC(=O)NC[C@H]1CN(c2ccc(-c3ccc(CO)cc3)s2)C(=O)O1 [Example 101, (5S)-3-(2-[5-(4-hydroxymethyl)phenyl]thiophenyl)-5-acetylamino-methyl-oxazolidin-2-one] | > 32 µg/mL | > 32 µg/mL | 2 µg/mL (≈ 5.77 µM) | > 32 µg/mL | 2 µg/mL (≈ 5.77 µM) | 2 µg/mL (≈ 5.77 µM) | 2 µg/mL (≈ 5.77 µM)
6 | CC(=O)NC[C@H]1CN(c2cc3cc(Br)ccc3s2)C(=O)O1 [Example 22] | > 32 µg/mL | > 32 µg/mL | 1 µg/mL (≈ 2.71 µM) | > 32 µg/mL | 4 µg/mL (≈ 10.8 µM) | 2 µg/mL (≈ 5.42 µM) | 2 µg/mL (≈ 5.42 µM)

Second part, the molecule after the results:

Row | MIC (Klebs. 57 USA) | MIC (Psdm. Bonn) | MIC (Staph 25701) | MIC (E. coli Neumann) | MIC (Staph 133) | MIC (Staph 48N) | MIC (Staph 9TV) | Structure (SMILES)
7 | > 32 µg/mL | > 32 µg/mL | 4 µg/mL (≈ 12.1 µM) | > 32 µg/mL | 8 µg/mL (≈ 24.1 µM) | 4 µg/mL (≈ 12.1 µM) | 4 µg/mL (≈ 12.1 µM) | CC(=O)NC[C@H]1CN(c2ccc(-c3cccc(N)c3)s2)C(=O)O1 [Example 56]
8 | > 32 µg/mL | > 32 µg/mL | 1 µg/mL (≈ 2.9 µM) | > 32 µg/mL | 1 µg/mL (≈ 2.9 µM) | 1 µg/mL (≈ 2.9 µM) | 1 µg/mL (≈ 2.9 µM) | CC(=O)NC[C@H]1CN(c2ccc(-c3cccc(C=O)c3)s2)C(=O)O1 [Example 43]
9 | > 32 µg/mL | > 32 µg/mL | 2 µg/mL (≈ 5.71 µM) | > 32 µg/mL | 2 µg/mL (≈ 5.71 µM) | 2 µg/mL (≈ 5.71 µM) | 2 µg/mL (≈ 5.71 µM) | CC(=O)NC[C@H]1CN(c2ccc(-c3csc(C=O)c3)s2)C(=O)O1 [Example 41]
10 | > 32 µg/mL | > 32 µg/mL | 0.25 µg/mL (≈ 0.726 µM) | > 32 µg/mL | 0.25 µg/mL (≈ 0.726 µM) | 0.25 µg/mL (≈ 0.726 µM) | 0.25 µg/mL (≈ 0.726 µM) | CC(=O)NC[C@H]1CN(c2ccc(-c3ccc(C=O)cc3)s2)C(=O)O1 [Example 44]
11 | > 32 µg/mL | > 32 µg/mL | 8 µg/mL (≈ 23.2 µM) | > 32 µg/mL | 16 µg/mL (≈ 46.5 µM) | 8 µg/mL (≈ 23.2 µM) | 8 µg/mL (≈ 23.2 µM) | CC(=O)NC[C@H]1CN(c2cc(-c3ccc(C=O)cc3)cs2)C(=O)O1 [Example 60]
12 | > 32 µg/mL | > 32 µg/mL | 2 µg/mL (≈ 5.81 µM) | > 32 µg/mL | 4 µg/mL (≈ 11.6 µM) | 2 µg/mL (≈ 5.81 µM) | 1 µg/mL (≈ 2.9 µM) | CC(=O)NC[C@H]1CN(c2cc(-c3cccc(C=O)c3)cs2)C(=O)O1 [Example 59]
13 | > 32 µg/mL | > 32 µg/mL | 8 µg/mL (≈ 23.1 µM) | > 32 µg/mL | 8 µg/mL (≈ 23.1 µM) | 8 µg/mL (≈ 23.1 µM) | 8 µg/mL (≈ 23.1 µM) | CC(=O)NC[C@H]1CN(c2ccc(-c3cccc(CO)c3)s2)C(=O)O1 [Example 102]
14 | > 32 µg/mL | > 32 µg/mL | 8 µg/mL (≈ 25.1 µM) | > 32 µg/mL | 8 µg/mL (≈ 25.1 µM) | 8 µg/mL (≈ 25.1 µM) | 8 µg/mL (≈ 25.1 µM) | CC(=O)NC[C@H]1CN(c2cc(Br)cs2)C(=O)O1 [Example 26]
15 | > 32 µg/mL | > 32 µg/mL | 2 µg/mL (≈ 6.05 µM) | > 32 µg/mL | 2 µg/mL (≈ 6.05 µM) | 2 µg/mL (≈ 6.05 µM) | 1 µg/mL (≈ 3.03 µM) | CC(=O)NC[C@H]1CN(c2ccc(-c3ccc(C)cc3)s2)C(=O)O1 [Example 39, (5S)-3-{2[5-(4-Methylphenyl)]thiophenyl}-5-acetyl-aminomethyl-oxazolidin-2-one]
